Among the test systems are BT-549; CAKI-1; CCRF-CEM; DU-145; HCT-116; HCT-15; HT-29; IGROV-1; NCI-H522; OVCAR-8; RXF 393; SF-268; SF-539; SK-MEL-2; SK-MEL-5; SW-620; UACC-62; EKVX; SF-295; HL-60.
Common to all, as to assay: NCI-60 cell line screen, 48 h

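Values below derive from 48-hour exposures of cells grown in 96-well plates, with endpoints linearly interpolated between the two concentrations bracketing the appropriate inhibition level. Here, GI50 denotes the concentration required for 50% inhibition of growth.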 Active and inactive are the calls of the source. No stated cut-off is given here; in the data, active = GI50 up to about 1.1 µM and inactive = higher. A value given as a limit tells only on which side of the number the result lay.

With `Cc1cccc(NC(=S)NNC(=O)c2cc(-c3ccccc3)nc3ccccc23)c1`, the GI50 in the experiment with BT-549 was 47.9 µM (inactive); with CAKI-1, 32.7 µM (inactive); in the experiment with CCRF-CEM, 12.7 µM (inactive); in the experiment with DU-145, 34.4 µM (inactive); in the experiment on HCT-116, 20.8 µM (inactive); with HCT-15, 36.7 µM. The GI50 in the experiment with HT-29 was 34.7 µM (inactive); in the experiment on IGROV-1 it was 33.6 µM (inactive); with NCI-H522, 26.2 µM (inactive); with OVCAR-8 it was 39.8 µM (inactive); in the experiment on RXF 393, 25.4 µM (inactive); in the experiment with SF-268 it was 42 µM (inactive). The GI50 in the experiment on SF-539 was 21.8 µM (inactive); in the experiment on SK-MEL-2 it was 21.8 µM (inactive); in the experiment with SK-MEL-5, 19.9 µM (inactive); with SW-620, 36.3 µM (inactive); in the experiment on UACC-62 it was 38.5 µM (inactive).

Turning to `O=C1CC(c2cccc(Cl)c2)Nc2ccc(N3CCCC3)cc21` (configuration not stated), the GI50 is 1.29 µM (inactive) in the experiment with BT-549; 0.0608 µM (active) with CAKI-1; 0.0302 µM (active) in the experiment with CCRF-CEM; 0.0391 µM (active) in the experiment on DU-145; 0.0658 µM (active) with EKVX; 0.0385 µM (active) in the experiment on HCT-116. In addition, the GI50 in the experiment with HCT-15 is 0.203 µM; with HT-29 it was 0.0791 µM (active); in the experiment on IGROV-1, 0.13 µM (active); in the experiment on NCI-H522, 0.0191 µM (active); in the experiment on OVCAR-8, 0.0522 µM (active); with RXF 393, 0.0224 µM (active). In addition, the GI50 with SF-268 is 0.115 µM (active); in the experiment on SF-295 it was 0.0439 µM (active); with SF-539, 0.0263 µM (active); with SK-MEL-2, 0.0546 µM (active); in the experiment with SK-MEL-5 it was 0.0305 µM (active); with SW-620, 0.0266 µM (active). Moreover, in the experiment with UACC-62, the GI50 was 0.0537 µM (active).

As for `Nc1ncnc2c1cnn2COCC(O)CO` (configuration not stated), the GI50 in the experiment with BT-549, with CAKI-1, in the experiment on CCRF-CEM, in the experiment with DU-145, with EKVX and with HCT-116 was > 100 µM (inactive) throughout. Moreover, the GI50 with HCT-15 is over 100 µM; in the experiment with HT-29 it was > 100 µM (inactive); in the experiment with IGROV-1, > 100 µM (inactive); in the experiment on NCI-H522, > 100 µM (inactive); in the experiment with OVCAR-8, > 100 µM (inactive); in the experiment with RXF 393 it was > 100 µM (inactive). Moreover, the GI50 in the experiment on SF-268, in the experiment with SF-295, in the experiment on SF-539, in the experiment with SK-MEL-2, with SK-MEL-5 and in the experiment on SW-620 was > 100 µM (inactive) in each case. In the experiment with UACC-62, the GI50 was > 100 µM (inactive).

Turning to `O=C1CSC(c2ccccc2O)N1c1ccc(-c2ccc(-n3c(-c4ccccc4)nc4ccccc4c3=O)cc2)cc1` (configuration not stated), the GI50 in the experiment on BT-549 is 13.7 µM (inactive); in the experiment on CAKI-1, 26.1 µM (inactive); with CCRF-CEM, 26.4 µM (inactive); in the experiment on DU-145, 49 µM (inactive); with EKVX it was 37.4 µM (inactive); with HCT-116, 29.5 µM (inactive). Also, the GI50 was 33.7 µM in the experiment on HCT-15; 23.4 µM (inactive) in the experiment on HL-60; 13.3 µM (inactive) in the experiment on HT-29; 15.3 µM (inactive) in the experiment with IGROV-1; 19.2 µM (inactive) in the experiment on NCI-H522; 24.3 µM (inactive) in the experiment on OVCAR-8. For the same compound, the GI50 is 35.1 µM (inactive) in the experiment on RXF 393; 45.3 µM (inactive) with SF-268; 22.5 µM (inactive) in the experiment with SF-295; 32.1 µM (inactive) in the experiment on SF-539; 22.8 µM (inactive) in the experiment with SW-620; 27.7 µM (inactive) with UACC-62.

As for `OCCOCCN1CCN(CCCN2c3ccccc3Sc3ccc(C(F)(F)F)cc32)CC1`, the GI50 was 19.8 µM (inactive) with BT-549; 15.3 µM (inactive) with CAKI-1; 0.337 µM (active) in the experiment with CCRF-CEM; 14.2 µM (inactive) in the experiment on DU-145; 14.8 µM (inactive) in the experiment on EKVX; 7.91 µM (inactive) in the experiment with HCT-116. Also, the GI50 with HCT-15 is 21.6 µM; in the experiment with HT-29, 2.33 µM (inactive); with IGROV-1, 9.84 µM (inactive); in the experiment with NCI-H522, 14.7 µM (inactive); in the experiment on OVCAR-8, 15.2 µM (inactive); in the experiment with RXF 393 it was 3.18 µM (inactive). The GI50 in the experiment with SF-268 was 16.5 µM (inactive); in the experiment with SF-295, 12.9 µM (inactive); in the experiment on SF-539 it was 12.4 µM (inactive); in the experiment with SK-MEL-2, 19.4 µM (inactive); with SK-MEL-5, 3.22 µM (inactive); with SW-620, 15.5 µM (inactive). Further, the GI50 in the experiment with UACC-62 is 6.65 µM (inactive).

For `NC(=O)c1cc2ccc(O)cc2o/c1=N/c1ccccc1`, the GI50 in the experiment with BT-549 was 24.4 µM (inactive); with CAKI-1, 19.3 µM (inactive); in the experiment on CCRF-CEM, 37.5 µM (inactive); in the experiment with DU-145, 43.2 µM (inactive); in the experiment on EKVX, 31.1 µM (inactive); in the experiment on HCT-116, 24.4 µM (inactive). In addition, the GI50 was 26.4 µM in the experiment on HCT-15; 25.1 µM (inactive) in the experiment with HL-60; 33 µM (inactive) in the experiment with HT-29; 26.5 µM (inactive) with IGROV-1; 17.8 µM (inactive) in the experiment on NCI-H522; 30.3 µM (inactive) in the experiment on OVCAR-8. Also, the GI50 in the experiment with RXF 393 was 26.2 µM (inactive); in the experiment on SF-268, 51.2 µM (inactive); in the experiment with SF-295, 43.5 µM (inactive); in the experiment on SK-MEL-2 it was 17.2 µM (inactive); with SK-MEL-5 it was 18.4 µM (inactive); in the experiment with SW-620, 26.2 µM (inactive). Besides, in the experiment on UACC-62, the GI50 is 28.5 µM (inactive).

Consider `NS(=O)(=O)c1ccc(C(=O)O)cc1` [CARZENIDE], for which the GI50 with BT-549, in the experiment with CAKI-1, in the experiment with CCRF-CEM, with DU-145, in the experiment with EKVX and in the experiment with HCT-116 was > 100 µM (inactive) each time. The GI50 in the experiment with HCT-15 was over 100 µM; in the experiment with HL-60, > 100 µM (inactive); with HT-29 it was > 100 µM (inactive); with IGROV-1, > 100 µM (inactive); with NCI-H522, > 100 µM (inactive); in the experiment on OVCAR-8, > 100 µM (inactive). The GI50 with RXF 393, with SF-268, with SF-295, with SK-MEL-2, in the experiment with SK-MEL-5 and in the experiment on SW-620 was > 100 µM (inactive) in each case. For the same compound, in the experiment on UACC-62, the GI50 is > 100 µM (inactive).

For the compound `CC(C)CCCC(C)[C@H]1CC[C@H]2[C@@H]3CC[C@H]4C[C@@H](CCC=C(c5cc(Cl)c(O)c(C(=O)OC(C)C)c5)c5cc(Cl)c(O)c(C(=O)OC(C)C)c5)CC[C@]4(C)[C@H]3CC[C@]12C` (some centres not stated), the GI50 in the experiment on BT-549, with CAKI-1, with CCRF-CEM, with DU-145, in the experiment on EKVX and in the experiment on HCT-116 was > 50 µM (inactive) in each case. Also, the GI50 in the experiment with HCT-15 was over 50 µM; in the experiment on HL-60 it was > 50 µM (inactive); with HT-29, > 50 µM (inactive); in the experiment on IGROV-1, > 50 µM (inactive); in the experiment on OVCAR-8 it was > 50 µM (inactive); with RXF 393, > 50 µM (inactive). Besides, the GI50 in the experiment on SF-268, with SF-295, with SF-539, in the experiment with SK-MEL-2, in the experiment on SK-MEL-5 and with SW-620 was > 50 µM (inactive) in each case. The GI50 in the experiment on UACC-62 was > 50 µM (inactive).

`COc1ccc(/N=N/C(=N\c2ccc(F)cc2)c2ccc(N(CCC#N)CCC#N)cc2)cc1`: the GI50 is 17.5 µM (inactive) with BT-549; 81.8 µM (inactive) in the experiment on CAKI-1; 36.1 µM (inactive) with CCRF-CEM; 33 µM (inactive) with DU-145; 34.4 µM (inactive) in the experiment with EKVX; 32.6 µM (inactive) with HCT-116. Further, the GI50 was 54 µM with HCT-15; 39.5 µM (inactive) in the experiment on HT-29; 19.9 µM (inactive) in the experiment on IGROV-1; 20 µM (inactive) in the experiment on NCI-H522; 33.5 µM (inactive) in the experiment with OVCAR-8; 15.4 µM (inactive) in the experiment with RXF 393. Also, the GI50 is 35.2 µM (inactive) with SF-268; 32.9 µM (inactive) in the experiment with SF-295; > 100 µM (inactive) in the experiment on SF-539; 12.4 µM (inactive) in the experiment on SK-MEL-5; 41.6 µM (inactive) with SW-620; 15.7 µM (inactive) in the experiment on UACC-62.

As to `CC1CCc2sc3nc4n(c(=O)c3c2C1)CC(C)S4` (configuration not stated), the GI50 was 27.5 µM (inactive) in the experiment with BT-549; 36.9 µM (inactive) in the experiment with CAKI-1; 28.3 µM (inactive) in the experiment with DU-145; 15.1 µM (inactive) with EKVX; 23.3 µM (inactive) with HCT-116; 25.6 µM in the experiment on HCT-15. Further, the GI50 with HT-29 was 15.8 µM (inactive); in the experiment with IGROV-1 it was 34.2 µM (inactive); in the experiment with NCI-H522 it was 30.9 µM (inactive); in the experiment on OVCAR-8, 32.2 µM (inactive); in the experiment with RXF 393, 15.4 µM (inactive); with SF-268 it was 33.6 µM (inactive). Also, the GI50 was 14.3 µM (inactive) in the experiment with SF-295; 19.5 µM (inactive) in the experiment on SK-MEL-2; 18.9 µM (inactive) in the experiment with SK-MEL-5; 43.9 µM (inactive) in the experiment on SW-620; 16.2 µM (inactive) with UACC-62.

As to `COc1cccc(/N=N/C(=N/NC(=O)c2cc(Cl)ccc2O)c2ccc(N(CCC#N)CCC#N)cc2C)c1`, the GI50 with BT-549 is 34.3 µM (inactive); with CAKI-1, 48.3 µM (inactive); in the experiment with CCRF-CEM, 15.3 µM (inactive); in the experiment with DU-145, 43.4 µM (inactive); in the experiment with EKVX, 20.3 µM (inactive); in the experiment on HCT-116, 18.8 µM (inactive). Besides, the GI50 in the experiment with HCT-15 was 33.3 µM; with HT-29, 5.85 µM (inactive); with IGROV-1, 23.3 µM (inactive); in the experiment on NCI-H522, 9.1 µM (inactive); in the experiment on OVCAR-8 it was 16.9 µM (inactive); in the experiment with RXF 393 it was 38.1 µM (inactive). For the same compound, the GI50 in the experiment on SF-268 is 47.1 µM (inactive); in the experiment with SF-295, 37.3 µM (inactive); in the experiment with SF-539 it was 18.4 µM (inactive); in the experiment with SK-MEL-2 it was 57 µM (inactive); in the experiment on SK-MEL-5 it was 29.9 µM (inactive); with UACC-62, 44.6 µM (inactive).

Values taken from ChEMBL document CHEMBL1201862, “PubChem BioAssay data set” (2004).
